Here are results for one substance from patent US20060052368A1 (priority 2002, published 2006).

The target in this assay is α7 nAChR subtype (Rattus norvegicus, UniProt Q05941). The format is binding. The following applies: read-out: KD of radioligand from saturation curves.
α7 nAChR subtype, sequence (Q05941 23-502 limits assumed): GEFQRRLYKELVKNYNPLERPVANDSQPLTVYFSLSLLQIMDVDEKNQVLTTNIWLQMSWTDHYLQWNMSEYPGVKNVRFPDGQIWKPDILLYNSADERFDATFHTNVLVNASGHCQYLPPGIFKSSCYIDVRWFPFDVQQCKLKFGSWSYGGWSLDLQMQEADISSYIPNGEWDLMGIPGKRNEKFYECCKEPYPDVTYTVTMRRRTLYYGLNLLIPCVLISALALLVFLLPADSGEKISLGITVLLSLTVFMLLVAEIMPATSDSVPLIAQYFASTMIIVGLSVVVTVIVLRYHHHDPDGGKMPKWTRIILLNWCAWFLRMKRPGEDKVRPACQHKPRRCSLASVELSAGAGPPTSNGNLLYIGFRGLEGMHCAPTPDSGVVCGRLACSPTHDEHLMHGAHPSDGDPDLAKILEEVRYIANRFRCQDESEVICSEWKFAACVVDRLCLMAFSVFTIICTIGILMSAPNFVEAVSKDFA

For the substance ^125I-α-Bungarotoxin [^125I-α-BTX], the Kd was 1.67 nM.
